Results taken from PubChem BioAssay AID248 (DTP/NCI, 2004).
Several values for one entry are separate records, joined by “and”; a condition that tells them apart may be missing. Equal entries are not always repeated. Inconclusive results and toxic doses are left out. Rule as the data show it: active = T/C of 150% or more; inactive = T/C below 125%.

System: L1210 leukemia ip in BDF1 mice, survival T/C
Assay: NCI In Vivo Anticancer Drug Screen. Data for tumor model L1210 Leukemia (intraperitoneal) in B6D2F1 (BDF1) mice
Details: endpoint: mean survival time, higher = longer survival
In short: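 Value reflects the ratio of survival in compound-treated mice to survival in vehicle-treated controls, with both groups carrying the same transplanted tumor.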

[1] = dose: 100.0 mg/kg/injection, schedule: Q01DX009 (ip), vehicle: saline
[2] = dose: 100.0 mg/kg/injection, schedule: Q04DX003 (ip), vehicle: saline
[3] = dose: 100.0 mg/kg/injection, schedule: Q01DX001 (ip), vehicle: saline
[4] = dose: 100.0 mg/kg/injection, schedule: Q01DX009 (ip), vehicle: saline with Tween-80
[5] = dose: 100.0 mg/kg/injection, schedule: Q04DX003 (ip), vehicle: saline with Tween-80
[6] = dose: 200.0 mg/kg/injection, schedule: Q01DX009 (ip), vehicle: saline with Tween-80
[7] = dose: 200.0 mg/kg/injection, schedule: Q04DX003 (ip), vehicle: saline with Tween-80
[8] = dose: 400.0 mg/kg/injection, schedule: Q01DX009 (ip), vehicle: saline with Tween-80
[9] = dose: 200.0 mg/kg/injection, schedule: Q04DX003 (ip), vehicle: saline
[10] = dose: 100.0 mg/kg/injection, schedule: Q04DX003 (ip), vehicle: Klucel (hydroxypropylcellulose) (HPC)
[11] = dose: 200.0 mg/kg/injection, schedule: Q04DX003 (ip), vehicle: Klucel (hydroxypropylcellulose) (HPC)
[12] = dose: 100.0 mg/kg/injection, schedule: Q01DX009 (ip), vehicle: Klucel (hydroxypropylcellulose) (HPC)
[13] = dose: 200.0 mg/kg/injection, schedule: Q01DX009 (ip), vehicle: Klucel (hydroxypropylcellulose) (HPC)
[14] = dose: 400.0 mg/kg/injection, schedule: Q04DX003 (ip), vehicle: saline with Tween-80

Measured: T/C

[N-]=[N+]=Nc1ccc(Cl)cc1C(=O)c1ccccc1
inactive: dose: 25.0 mg/kg/injection, schedule: Q01DX009 (ip), vehicle: saline 120 % of control | dose: 25.0 mg/kg/injection, schedule: Q04DX003 (ip), vehicle: saline 98 % of control | dose: 50.0 mg/kg/injection, schedule: Q01DX009 (ip), vehicle: saline 109 % of control | dose: 50.0 mg/kg/injection, schedule: Q04DX003 (ip), vehicle: saline 104 % of control | [1] 111 % of control | [2] 102 % of control and 113 % of control

N#CCC1CC=CCC1 (stereo unspecified)
inactive: dose: 100.0 mg/kg/injection, schedule: Q01DX001 (ip), vehicle: carboxymethylcellulose (CMC) 98 % of control | dose: 200.0 mg/kg/injection, schedule: Q01DX001 (ip), vehicle: carboxymethylcellulose (CMC) 98 % of control | dose: 400.0 mg/kg/injection, schedule: Q01DX001 (ip), vehicle: carboxymethylcellulose (CMC) 104 % of control

CCCNc1ccc(C2=NCCCN2)cc1
inactive: [3] 102 % of control

COc1cccc(CCCC(=O)O)c1OC
inactive: dose: 100.0 mg/kg/injection, schedule: Q04DX003 (ip), vehicle: gum acacia 99 % of control | dose: 200.0 mg/kg/injection, schedule: Q04DX003 (ip), vehicle: gum acacia 94 % of control | dose: 400.0 mg/kg/injection, schedule: Q04DX003 (ip), vehicle: gum acacia 96 % of control

NC(=O)N/C=C1\CCCOC1=O
inactive: dose: 50.0 mg/kg/injection, schedule: Q01DX009 (ip), vehicle: saline with Tween-80 98 % of control | [4] 93 % of control and 91 % of control | [5] 96 % of control | [6] 98 % of control and 109 % of control | [7] 104 % of control | [8] 109 % of control

CC1CCCCN1C(=O)CCCCl (stereo unspecified)
inactive: dose: 100.0 mg/kg/injection, schedule: Q04DX002 (ip), vehicle: saline 111 % of control | dose: 200.0 mg/kg/injection, schedule: Q04DX002 (ip), vehicle: saline 101 % of control | dose: 400.0 mg/kg/injection, schedule: Q04DX002 (ip), vehicle: saline 88 % of control

O=C1/C(=C/c2ccncc2)CCc2cc(Cl)ccc21
inactive: dose: 100.0 mg/kg/injection, schedule: Q04DX003 (ip), vehicle: carboxymethylcellulose (CMC) 107 % of control | dose: 200.0 mg/kg/injection, schedule: Q04DX003 (ip), vehicle: carboxymethylcellulose (CMC) 111 % of control | dose: 400.0 mg/kg/injection, schedule: Q04DX003 (ip), vehicle: carboxymethylcellulose (CMC) 96 % of control

O=c1[nH]c(Nc2ccccc2)c([N+](=O)[O-])c(=O)[nH]1
inactive: dose: 9.0 mg/kg/injection, schedule: Q01DX001 (ip), vehicle: Klucel (hydroxypropylcellulose) (HPC) 98 % of control | dose: 18.0 mg/kg/injection, schedule: Q01DX001 (ip), vehicle: Klucel (hydroxypropylcellulose) (HPC) 110 % of control | dose: 37.0 mg/kg/injection, schedule: Q01DX001 (ip), vehicle: Klucel (hydroxypropylcellulose) (HPC) 101 % of control | dose: 75.0 mg/kg/injection, schedule: Q01DX001 (ip), vehicle: Klucel (hydroxypropylcellulose) (HPC) 104 % of control

Cc1ccc(N2C(=O)C=C(c3ccccc3)C2=O)cc1
inactive: dose: 75.0 mg/kg/injection, schedule: Q04DX003 (ip), vehicle: Klucel (hydroxypropylcellulose) (HPC) 104 % of control | dose: 150.0 mg/kg/injection, schedule: Q04DX003 (ip), vehicle: Klucel (hydroxypropylcellulose) (HPC) 105 % of control | dose: 300.0 mg/kg/injection, schedule: Q04DX003 (ip), vehicle: Klucel (hydroxypropylcellulose) (HPC) 104 % of control

Cc1ccc2c(c1)-c1[nH]c3ccccc3c1CS2
inactive: dose: 100.0 mg/kg/injection, schedule: Q04DX003 (ip), vehicle: acetone 105 % of control | dose: 200.0 mg/kg/injection, schedule: Q04DX003 (ip), vehicle: acetone 110 % of control

N#Cc1cn(C2OC(CO)C(O)C2O)c2ncnc(N)c12 (stereo unspecified)
inactive: dose: 0.04 mg/kg/injection, schedule: Q01DX009 (ip), vehicle: saline 119 % of control | dose: 0.08 mg/kg/injection, schedule: Q01DX005 (ip), vehicle: saline 86 % of control | dose: 0.09 mg/kg/injection, schedule: Q01DX009 (ip), vehicle: saline 107 % of control | dose: 0.12 mg/kg/injection, schedule: Q01DX005 (ip), vehicle: saline 96 % of control

O=C1COC(C(Cl)(Cl)Cl)CN1 (stereo unspecified)
inactive: dose: 100.0 mg/kg/injection, schedule: Q01DX001 (ip), vehicle: saline with Tween-80 108 % of control | dose: 200.0 mg/kg/injection, schedule: Q01DX001 (ip), vehicle: saline with Tween-80 105 % of control | dose: 400.0 mg/kg/injection, schedule: Q01DX001 (ip), vehicle: saline with Tween-80 103 % of control

O=C(Cc1ccccc1)Nc1ccc(Cl)c(Cl)c1
inactive: dose: 100.0 mg/kg/injection, schedule: Q04DX002 (ip), vehicle: Klucel (hydroxypropylcellulose) (HPC) 100 % of control | dose: 200.0 mg/kg/injection, schedule: Q04DX002 (ip), vehicle: Klucel (hydroxypropylcellulose) (HPC) 100 % of control | dose: 400.0 mg/kg/injection, schedule: Q04DX002 (ip), vehicle: Klucel (hydroxypropylcellulose) (HPC) 96 % of control

Cc1cccc(CCSCCc2cccc(C)[n+]2[O-])[n+]1[O-]
inactive: [3] 96 % of control | dose: 200.0 mg/kg/injection, schedule: Q01DX001 (ip), vehicle: saline 92 % of control

CC(C)(C)OC(=O)CNC(=O)CCl
inactive: [2] 96 % of control | [9] 95 % of control

CC(C)(C)c1cc(C[P+](c2ccc(Cl)cc2)(c2ccc(Cl)cc2)c2ccc(Cl)cc2)cc(C(C)(C)C)c1O
inactive: dose: 12.5 mg/kg/injection, schedule: Q01DX009 (ip), vehicle: Klucel (hydroxypropylcellulose) (HPC) 97 % of control | dose: 25.0 mg/kg/injection, schedule: Q01DX009 (ip), vehicle: Klucel (hydroxypropylcellulose) (HPC) 88 % of control | [10] 98 % of control | [11] 100 % of control

CC1CCOC(C)O1 (stereo unspecified)
inactive: [1] 103 % of control | [2] 100 % of control | dose: 200.0 mg/kg/injection, schedule: Q01DX009 (ip), vehicle: saline 91 % of control | [9] 94 % of control | dose: 400.0 mg/kg/injection, schedule: Q01DX009 (ip), vehicle: saline 96 % of control | dose: 400.0 mg/kg/injection, schedule: Q04DX003 (ip), vehicle: saline 94 % of control

O=C(NC(c1ccccc1)C(Cl)(Cl)Cl)c1ccccc1 (stereo unspecified)
inactive: dose: 50.0 mg/kg/injection, schedule: Q01DX009 (ip), vehicle: Klucel (hydroxypropylcellulose) (HPC) 97 % of control | [12] 97 % of control | [13] 97 % of control

C1CCC2(CC1)CCCO2
inactive: dose: 50.0 mg/kg/injection, schedule: Q04DX002 (ip), vehicle: saline with Tween-80 87 % of control | dose: 100.0 mg/kg/injection, schedule: Q04DX002 (ip), vehicle: saline with Tween-80 98 % of control | dose: 200.0 mg/kg/injection, schedule: Q04DX002 (ip), vehicle: saline with Tween-80 106 % of control | dose: 400.0 mg/kg/injection, schedule: Q04DX002 (ip), vehicle: saline with Tween-80 102 % of control

C(=N\Nc1nn[nH]n1)/c1ccncc1
inactive: [4] 98 % of control | [5] 95 % of control | dose: 132.0 mg/kg/injection, schedule: Q01DX009 (ip), vehicle: saline with Tween-80 102 % of control | [7] 96 % of control | dose: 300.0 mg/kg/injection, schedule: Q01DX009 (ip), vehicle: saline with Tween-80 97 % of control | [8] 100 % of control | [14] 90 % of control

COc1ccc(/C=N\NC(=O)CCCC(=O)N/N=C/c2ccc(OC)cc2)cc1
inactive: dose: 50.0 mg/kg/injection, schedule: Q01DX001 (ip), vehicle: other 93 % of control | dose: 100.0 mg/kg/injection, schedule: Q01DX001 (ip), vehicle: other 88 % of control | dose: 200.0 mg/kg/injection, schedule: Q01DX001 (ip), vehicle: other 90 % of control

O=[N+]([O-])c1cc2c3ccccc3oc2c2cccnc12
inactive: [12] 91 % of control | [10] 90 % of control | [13] 90 % of control | [11] 90 % of control | dose: 400.0 mg/kg/injection, schedule: Q04DX003 (ip), vehicle: Klucel (hydroxypropylcellulose) (HPC) 89 % of control

COc1ccc(/C=N\NC(=O)c2ccccc2)cc1
inactive: [5] 102 % of control | [7] 103 % of control | [14] 92 % of control

CCCCCCCC/C=C\CCCCCCCC(=O)OCC1CCCO1 (stereo unspecified)
inactive: [4] 95 % of control | [6] 90 % of control | [8] 92 % of control
